Data published in patent publication US8283365B2, “Indole modulators of the alpha 7 nicotinic acetylcholine receptor” (Proximagen Limited, priority 2008, dated 2012).

Molecular target: T1, human α7 nAChR (Homo sapiens, UniProt P36544)
T1 construct: expressed in transfected cells; host or cells: GH4C1 (rat pituitary) cell line, stably transfected
Experiment: FLIPR cell-based calcium flux assay for PAM activity at α7 nAChR (nicotine-evoked response)
Conditions: GH4C1 cell line stably transfected with human α7 nAChR
Experimental: The PAM activity of the compounds of the invention at the α7 nAChR may be determined using the following cell-based calcium flux assay which uses a Fluorimetric Image Plate Reader (FLIPR) (see Schroeder et al.; J. Biomolecular Screening, 1(2), p 75-80, 1996).
GH4C1 cell line stably transfected with human α7 nAChR was suspended in a 384 well plate and incubated at 30° C. for 48 h in a 5% carbon dioxide atmosphere. The growth media was removed and the cells washed three times with a solution of Hanks' balanced salt solution (HBSS), 20 mM HEPES and 2.5 mM probenecid leaving 20 μl washing solution in each well. A loading solution (20 μl) containing HBSS, probenecid, 1-4 μM Fluo4 AM (a calcium indicator dye) and pluronic acid was added and the plate incubated for 45 min at 37° C. under an atmosphere free from carbon dioxide. The cells were washed three times leaving 30 μl in each well. The plate containing the cells and calcium indicator dye were then transferred to the FLIPR. The assay was initiated by collecting baseline datapoints at 10 second intervals followed by addition of the test compound in buffer solution (0.33% DMSO) and diluted to a final concentration of 10 μM and serial dilution of the wells, 1:2 or 1:3, gave a low concentration of <1 nM. Following a further 5-10 mins 10 μl of 50 μM nicotine was added and data collected for 2-3 mins. […]

T1 sequence (P36544 23-502): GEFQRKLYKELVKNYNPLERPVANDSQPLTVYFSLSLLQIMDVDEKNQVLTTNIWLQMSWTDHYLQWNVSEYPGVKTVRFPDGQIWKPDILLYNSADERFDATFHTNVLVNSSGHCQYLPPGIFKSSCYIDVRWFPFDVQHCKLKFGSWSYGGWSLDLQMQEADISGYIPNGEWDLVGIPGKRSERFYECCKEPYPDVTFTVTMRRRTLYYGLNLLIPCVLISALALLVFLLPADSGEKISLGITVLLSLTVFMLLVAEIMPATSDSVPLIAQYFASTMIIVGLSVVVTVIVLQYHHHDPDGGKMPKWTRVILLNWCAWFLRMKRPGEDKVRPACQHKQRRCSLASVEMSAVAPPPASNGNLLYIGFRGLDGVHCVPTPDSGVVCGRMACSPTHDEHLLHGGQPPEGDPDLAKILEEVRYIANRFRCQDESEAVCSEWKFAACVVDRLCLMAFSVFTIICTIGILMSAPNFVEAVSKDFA

`O=C(NCc1ccc2[nH]c(C(F)(F)F)cc2c1)c1ccc(C(F)(F)F)nc1` [Compound 1, N-[(2-Trifluoromethyl-1H-indol-5-yl)methyl]-6-(trifluoromethyl)-3-pyridinecarboxamide] was tested. Which EC50 (potentiation of nicotine-evoked calcium flux) did it give?
Its EC50 is less than 1000 nM.

What about the “maximum potentiation of the response area relative to nicotine control” value (relative to nicotine control) of the same compound?
Its value is “approximately 1200%”.
